According to ChEMBL document CHEMBL1140310, “[Nalpha-benzylTyr1,cyclo(D-Asp5,Dap8)]- dynorphin A-(1-11)NH2 cyclized in the "address" domain is a novel kappa-opioid receptor antagonist” (J Med Chem, 2005):
pKi: −log10 of the molar value.

Experiments:
[1] = Inhibition of [3H]diprenorphine binding to kappa opioid receptor expressed in CHO cells; format: cell-based
[2] = Relative binding affinity for kappa and mu opioid receptors
[3] = Relative binding affinity for kappa and delta opioid receptors
[4] = Inhibition of [3H]-DPDPE (cyclo[D-Pen2,D-Pen5]enkep halin) binding to delta opioid receptor expressed in CHO cells; format: cell-based
[5] = Inhibition of [3H]DAMGO ([D-Ala2,NMePhe4,glyol]-enkephalin) binding to mu opioid receptor expressed in CHO cells; format: cell-based

Ratio [2]	Ratio [3]	Compound	pKi [1]	pKi [4]	pKi [5]
0.33	0.09	CC[C@H](C)[C@H](NC(=O)[C@H](CCCN=C(N)N)NC(=O)[C@H](CCCN=C(N)N)NC(=O)[C@H](CC(C)C)NC(=O)[C@H](Cc1ccccc1)NC(=O)CNC(=O)CNC(=O)[C@@H](N)Cc1ccc(O)cc1)C(=O)N[C@@H](CCCN=C(N)N)C(=O)N1CCC[C@H]1C(=O)N[C@@H](CCCCN)C(N)=O	9.24	8.21	
0.005	0.003	NCCCC[C@H](NC(=O)[C@@H]1CCCN1C(=O)[C@H](CCCN=C(N)N)NC(=O)[C@@H]1CNC(=O)C[C@H](NC(=O)[C@H](Cc2ccccc2)NC(=O)CNC(=O)CNC(=O)[C@H](Cc2ccc(O)cc2)NCc2ccccc2)C(=O)N[C@H](CCCN=C(N)N)C(=O)N[C@@H](CCCN=C(N)N)C(=O)N1)C(N)=O	7.52	< 5.00	5.23
0.04	0.007	CC(=O)NC[C@H](NC(=O)[C@H](CCCNC(=N)N)NC(=O)[C@H](CCCNC(=N)N)NC(=O)[C@@H](CC(N)=O)NC(=O)[C@H](Cc1ccccc1)NC(=O)CNC(=O)CNC(=O)[C@H](Cc1ccc(O)cc1)NCc1ccccc1)C(=O)N[C@@H](CCCNC(=N)N)C(=O)N1CCC[C@H]1C(=O)N[C@@H](CCCCN)C(N)=O	7.17	< 5.00	5.78
